≈ marks a conversion by molar mass, not a printed value. Like-named read-outs stand apart in the source and are kept apart here.
Assays:
Assay in all cases: MIC determination in BHI broth microdilution
Format in all cases: cell-based
[1] = system: E. coli BAS 849; conditions: E. coli BAS849; BHI with 0.1% casamino acids, 18 hours at 37° C., OD600 ≧90% inhibition
Method: (§1) In the Table below, MIC (minimum inhibitory concentration) values of certain compounds of the present invention are provided for the bacterial strains E. faecalis ATCC 29212; E. faecalis CL4877; E. faecium ATCC 49624; E. faecium CL4931; S. aures ATCC 29213; S. aureus ATCC 33591; and E. coli BAS 849. The MICs of the test compounds were determined using bacteria grown in brain heart infusion media (BHI) supplemented with 0.1% casamino acids. Logarithmically growing cells were diluted to approximately 5×10^5 CFU/ml and subjected to test compounds solubilized and serially diluted with DMSO. A 5% final DMSO concentration had no effect on cell viability or killing. After 18 hours at 37° C., the OD600 was determined by reading the ninety-six well microtiter plates on a microplate reader. For a given concentration, an MIC determination was made if: […]

[2] = system: S. aureus ATCC 33591
Method: as §1

[3] = system: E. faecalis ATCC 29212
Method: (§2) The MICs of the test compounds were determined using bacteria grown in brain heart infusion media (BHI) supplemented with 0.1% casamino acids. Logarithmically growing cells were diluted to approximately 5×10^5 CFU/ml and subjected to test compounds solubilized and serially diluted with DMSO. […] After 18 hours at 37° C., the OD600 was determined by reading the ninety-six well microtiter plates on a microplate reader. For a given concentration, an MIC determination was made if: […]

[4] = system: E. faecalis CL4877
Method: as §2

[5] = system: S. aureus ATCC29213
Method: as §2

[6] = system: E. faecium CL4931
Method: as §2

[7] = system: E. faecium ATCC 49624
Method: as §2

[8] = S. aureus ATCC33591, BHI with 0.1% casamino acids, 18 hours at 37° C., OD600 ≧90% inhibition
[9] = E. faecalis ATCC29212, BHI with 0.1% casamino acids, 18 hours at 37° C., OD600 ≧90% inhibition
[10] = E. faecalis CL4877, BHI with 0.1% casamino acids, 18 hours at 37° C., OD600 ≧90% inhibition
[11] = S. aureus ATCC29213, BHI with 0.1% casamino acids, 18 hours at 37° C., OD600 ≧90% inhibition
[12] = E. faecium CL4931, BHI with 0.1% casamino acids, 18 hours at 37° C., OD600 ≧90% inhibition
[13] = E. faecium ATCC49624, BHI with 0.1% casamino acids, 18 hours at 37° C., OD600 ≧90% inhibition
[14] = Staphylococcus aureus, ATCC33591, 18 h
[15] = Enterococcus faecalis, ATCC29212, 18 h, read-out: MIC
[16] = Enterococcus faecalis, CL4877, 18 h, read-out: MIC
[17] = Staphylococcus aureus, ATCC29213, 18 h, read-out: MIC
[18] = Enterococcus faecium, CL4931, 18 h, read-out: MIC
[19] = Enterococcus faecium, ATCC49624, 18 h, read-out: MIC
[20] = Enterococcus faecalis, ATCC29212, 18 h
[21] = Enterococcus faecalis, CL4877, 18 h
[22] = Staphylococcus aureus, ATCC29213, 18 h
[23] = Enterococcus faecium, CL4931, 18 h
[24] = Enterococcus faecium, ATCC49624, 18 h

“6′-amino-3,4- dichloro- benzyloxylben zyl- vancomycin putrescine amide [TS0216]” showed an MIC [1] of 3.12 mg/L, an MIC [2, 8] of 3.12 mg/L and an MIC [3, 9] of 1.56 mg/L. The MIC [4, 10] was 3.12 mg/L, the MIC [5, 11] was 3.12 mg/L and the MIC [6, 12] was 6.25 mg/L. For the same compound, the MIC [7, 13] was 3.12 mg/L.
“6′-amino- chlorobiphenyl methyl- vancomycin putrescine amide [TS0217]” gave an MIC [1] of 3.12 mg/L, an MIC [2, 8] of 3.12 mg/L and an MIC [3, 9] of 1.56 mg/L. It also gave an MIC [4, 10] of 6.25 mg/L, an MIC [5, 11] of 1.56 mg/L and an MIC [6, 12] of 12.5 mg/L. For the same compound, the MIC [7, 13] was 1.56 mg/L.
“6′-azido-3,4- dichloro- benzyloxyben zyl- vancomycin putrescine amide [TS0220]” gave an MIC [2, 8] of 3.1250 mg/L, an MIC [3, 9] of 1.5625 mg/L and an MIC [4, 10] of 1.5625 mg/L. The MIC [5, 11] was 1.5625 mg/L, the MIC [6, 12] was 3.1250 mg/L and the MIC [7, 13] was 0.7813 mg/L.
`CN[C@H](CC(C)C)C(=O)N[C@H]1C(=O)N[C@@H](CC(N)=O)C(=O)N[C@H]2C(=O)N[C@H]3C(=O)N[C@H](C(=O)N[C@H](C(=O)O)c4cc(O)cc(O)c4-c4cc3ccc4O)[C@H](O)c3ccc(c(Cl)c3)Oc3cc2cc(c3O[C@@H]2O[C@H](CO)[C@@H](O)[C@H](O)[C@H]2O[C@H]2C[C@](C)(N)[C@H](O)[C@H](C)O2)Oc2ccc(cc2Cl)[C@H]1O` [EXT0002, vancomycin, reference compound] showed an MIC [1] of 0.78 mg/L (≈ 0.538 µM), an MIC [2, 8] of 0.78 to 3.12 mg/L and an MIC [3, 9] of 1.56 to 3.12 mg/L. The MIC [4, 10] was greater than 25 mg/L, the MIC [5, 11] was 1.56 mg/L (≈ 1.08 µM) and the MIC [6, 12] was greater than 25 mg/L. The MIC [7, 13] was 0.25 to 0.39 mg/L.
`CN[C@H](CC(C)C)C(=O)N[C@H]1C(=O)N[C@@H](CC(N)=O)C(=O)N[C@H]2C(=O)N[C@H]3C(=O)N[C@H](C(=O)N[C@@H](C(=O)NCCCCN)c4cc(O)cc(O)c4-c4cc3ccc4O)[C@H](O)c3ccc(c(Cl)c3)Oc3cc2cc(c3OC2OC(CO)C(O)C(O)C2OC2CC(C)(NCc3ccc(-c4ccc(Cl)cc4)cc3)C(O)C(C)O2)Oc2ccc(cc2Cl)[C@H]1O` (stereo partly drawn) [TS0221, chlorobipheny lmethyl- vancomycin putrescine amide] was tested, and the MIC [2, 14] was 0.781 mg/L (≈ 0.454 µM), the MIC [3, 15] was 1.56 mg/L (≈ 0.908 µM) and the MIC [4, 16] was 12.5 mg/L (≈ 7.27 µM). It also gave an MIC [5, 17] of 1.56 mg/L (≈ 0.908 µM), an MIC [6, 18] of 6.25 mg/L (≈ 3.63 µM) and an MIC [7, 19] of 0.25 mg/L (≈ 0.145 µM).
Work on `CN[C@H](CC(C)C)C(=O)N[C@H]1C(=O)N[C@@H](CC(N)=O)C(=O)N[C@H]2C(=O)NC3C(=O)N[C@H](C(=O)N[C@@H](C(=O)NCCCCN)c4cc(O)cc(O)c4-c4cc3ccc4O)[C@H](O)c3ccc(c(Cl)c3)Oc3cc2cc(c3OC2OC(CN=[N+]=[N-])C(O)C(O)C2OC2CC(C)(NCc3ccc(-c4ccc(Cl)cc4)cc3)C(O)C(C)O2)Oc2ccc(cc2Cl)[C@H]1O` (stereo partly drawn) [TS0222] yielded an MIC [2, 14] of 3.12 mg/L (≈ 1.79 µM), an MIC [3, 15] of 0.781 mg/L (≈ 0.448 µM) and an MIC [4, 16] of 3.12 mg/L (≈ 1.79 µM). The MIC [5, 17] was 1.56 mg/L (≈ 0.895 µM), the MIC [6, 18] was 3.12 mg/L (≈ 1.79 µM) and the MIC [7, 19] was 0.25 mg/L (≈ 0.143 µM).
With `CN[C@H](CC(C)C)C(=O)N[C@H]1C(=O)N[C@@H](CC(N)=O)C(=O)N[C@H]2C(=O)NC3C(=O)N[C@H](C(=O)N[C@@H](C(=O)NCCN)c4cc(O)cc(O)c4-c4cc3ccc4O)[C@H](O)c3ccc(c(Cl)c3)Oc3cc2cc(c3OC2OC(CN=[N+]=[N-])C(O)C(O)C2OC2CC(C)(NCc3ccc(OCc4ccc(Cl)c(Cl)c4)cc3)C(O)C(C)O2)Oc2ccc(cc2Cl)[C@H]1O` (stereo partly drawn) [TS0256, 6′-azido-3,4-dichlorobenzyl oxylbenzyl-vancomycin 2-aminoethyl amide] the MIC [2, 14] was 1.56 mg/L (≈ 0.876 µM), the MIC [3, 20] was 3.12 mg/L (≈ 1.75 µM) and the MIC [4, 21] was 1.56 mg/L (≈ 0.876 µM). For the same compound, the MIC [5, 22] was 1.56 mg/L (≈ 0.876 µM), the MIC [6, 23] was 6.25 mg/L (≈ 3.51 µM) and the MIC [7, 24] was 0.39 mg/L (≈ 0.219 µM).
`CN[C@H](CC(C)C)C(=O)N[C@H]1C(=O)N[C@@H](CC(N)=O)C(=O)N[C@H]2C(=O)NC3C(=O)N[C@H](C(=O)N[C@@H](C(=O)NCCN)c4cc(O)cc(O)c4-c4cc3ccc4O)[C@H](O)c3ccc(c(Cl)c3)Oc3cc2cc(c3OC2OC(CN)C(O)C(O)C2OC2CC(C)(NCc3ccc(OCc4ccc(Cl)c(Cl)c4)cc3)C(O)C(C)O2)Oc2ccc(cc2Cl)[C@H]1O` (stereo partly drawn) [TS0258, 6′-amino-3,4-dichlorobenzyl oxylbenzyl-vancomycin 2-aminoethyl amide] was tested, and the MIC [2, 14] was 12.5 mg/L (≈ 7.12 µM), the MIC [3, 20] was 12.5 mg/L (≈ 7.12 µM) and the MIC [4, 21] was 25 mg/L (≈ 14.2 µM). For the same compound, the MIC [5, 22] was 25 mg/L (≈ 14.2 µM), the MIC [6, 23] was 25 mg/L (≈ 14.2 µM) and the MIC [7, 24] was 3.12 mg/L (≈ 1.78 µM).
Work on “N-methyl, N- chlorobiphenyl methyl-D- leucyl-6′-azido- chlorobiphenyl methyl vancomycin putrescine amide [TS0259]” yielded an MIC [2, 8] of 1.56 mg/L, an MIC [3, 9] of 3.12 mg/L and an MIC [4, 10] of 12.5 mg/L. It also gave an MIC [5, 11] of 3.12 mg/L, an MIC [6, 12] of 6.25 mg/L and an MIC [7, 13] of 1.56 mg/L.
